Entries after “also recorded” stand apart in the source; their conditions may differ.
Legend:
[1] = biological target: T1, α2b adrenergic receptor (Homo sapiens, UniProt P18089); assay: α2b adrenergic receptor binding, [3H]RX821002; details: read-out: Affinity at α2b adrenergic receptor, Ki
T1 construct: expressed in transfected cells; host or cells: CHO cells
Procedure: Nonspecific binding was determined in the presence of 100 μM (−)-epinephrine. Bound radioactivity was determined by scintillation spectroscopy.

[2] = biological target: T2, human H1 histaminergic receptor (Homo sapiens, UniProt P35367); assay: H1 histaminergic receptor competitive binding assay, [3H]pyrilamine; details: for reduction of H1 histaminergic receptor affinity compared to AT: relative to AT; for reduction of H1 histaminergic receptor affinity compared to NT: relative to NT
T2 construct: expressed in transfected cells; host or cells: HEK-293 cells (membranes)
Procedure: Protocol. The affinities of AT, NT, (+)-E-10-OH-NT and (−)-E-10-OH-NT for the H1 histaminergic receptor were assessed in a competitive binding assay. For the assay, [^3H]pyrilamine (3 nM) was incubated with various concentrations of test compound for 1 hour at 22° C. with membranes prepared from human embryonic kidney (HEK-293) cells heterologously expressing the cloned human H1 histaminergic receptor. Bound radioactivity was determined by scintillation spectroscopy. Non-specific binding was defined as the amount of binding that occurred in the presence of 1.0 μM unlabeled pyrilamine.

[3] = tested on: L5 SNL rats, tactile allodynia; assay: L5-Single Nerve Ligation model of neuropathic pain (von Frey); format: in vivo, rat; details: 30 mg/kg; for antiallodynic activity: i.p.
Procedure: Protocol. […] The test animals were placed in a Plexiglas chamber (10 cm×20 cm×25 cm) and habituated for 15 minutes. The chamber was positioned on top of a mesh screen so that von Frey monofilaments could be presented to the plantar surface of both hindpaws. Measurement of tactile sensitivity for each hindpaw were obtained using the up/down method (Dixon, 1980) with seven Frey monofilaments (0.4, 1, 2, 4, 6, 8 and 15 grams). Each trial started with a von Frey force of 2 grams delivered to the right hindpaw for approximately 1-2 seconds and then the left hindpaw. If there was no withdrawal response, the next higher force was delivered. If there was a response, the next lower force was delivered. This procedure was performed until no response was made at the highest force (15 grams) or until four stimuli were administered following the initial response. Each test group contained 8 animals. The sham-operated control group, which were operated on but not subject to nerve ligation, contained 4 animals. All animals were tested at 60 minutes, and 240 minutes, post-administration of test compounds.
The 50% paw withdrawal threshold for each paw was calculated using the following formula: [Xth] log=[vFr] log+ky where [vFr] is the force of the last von Frey used, k=0.2249 which is the average interval (in log units) between the von Frey monofilaments, and y is a value that depends upon the pattern of withdrawal responses (Dixon, 1980). […] Testing for tactile sensitivity was performed twice and the mean 50% withdrawal value assigned as the tactile sensitivity for the right and left paws for each animal.
The E-10-OH-NT compounds were administered as either a maleate or succinate salt. AT was administered as a hydrochloride salt. Dosage amounts are based on the amount of free base. The test animals were placed in a Plexiglas chamber (10 cm×20 cm×25 cm) and habituated for 15 minutes. The chamber was positioned on top of a mesh screen so that von Frey monofilaments could be presented to the plantar surface of both hindpaws. Measurement of tactile sensitivity for each hindpaw were obtained using the up/down method (Dixon, 1980) with seven Frey monofilaments (0.4, 1, 2, 4, 6, 8 and 15 grams). Each trial started with a von Frey force of 2 grams delivered to the right hindpaw for approximately 1-2 seconds and then the left hindpaw. If there was no withdrawal response, the next higher force was delivered. If there was a response, the next lower force was delivered. This procedure was performed until no response was made at the highest force (15 grams) or until four stimuli were administered following the initial response. Each test group contained 8 animals. The sham-operated control group, which were operated on but not subject to nerve ligation, contained 4 animals. […]

[4] = biological target: T3, human muscarinic receptor M1 (Homo sapiens, UniProt P11229); assay: Muscarinic M1 receptor binding, [3H]pirenzepine; details: read-out: Affinity for Muscarinic Receptors, M1, Ki
T3 construct: expressed in transfected cells; host or cells: CHO cells (membranes)
Procedure: (§1) Protocol. […] Bound radioactivity was determined by scintillation spectroscopy. Non-specific binding was defined as the amount of bound radioligand in the presence of 1.0 μM atropine. Radioligand for the M1 receptor was [^3H]pirenzepine (2 nM). Radioligand for the M2 receptor was [^3H]AF-DX384 (2 nM). Radioligand for the M3, M4, and M5 receptors was [^3H]4-DAMP.

[5] = biological target: T4, human muscarinic receptor M3 (Homo sapiens, UniProt P20309); assay: Muscarinic M3 receptor binding, [3H]4-DAMP; details: read-out: Affinity for Muscarinic Receptors, M3, Ki
T4 construct: expressed in transfected cells; host or cells: CHO cells (membranes)
Procedure: as §1

[6] = tested on: gastrointestinal transit in Swiss-Webster mice; assay: Mouse gastrointestinal transit (charcoal meal) assay; format: in vivo; details: relative to sterile water vehicle, 1, 2 or 4 hours before charcoal meal
Procedure: Protocol. The inhibitory effect of AT, NT and (−)-E-10-OH-NT were assessed in a rodent model of gastrointestinal transit. For the assay, male Swiss-Webster mice (20-25 g) were fasted overnight and treated with test compound or sterile water vehicle control 1, 2 or 4 hours before per oral administration of a charcoal meal consisting of charcoal:flour:water (1:2:8, w:w:w). Gastrointestinal transit was measured 25 minutes after the charcoal meal. (−)-E-10-OH-NT was administered as either the maleate or succinate salt; AT and NT were administered as hydrochloride salts; the dosage amounts are based on the amount of free base.
Gastrointestinal transit (GIT) was determined by removing the entire length of the small intestine and measuring how far the leading edge of the charcoal meal traveled in the small intestine. The percent GIT (% GIT) was determined by the following formula:
% GIT=[distance to charcoal leading edge (cm)/length of small intestine (cm)×100]

T2 sequence (P35367 whole entry): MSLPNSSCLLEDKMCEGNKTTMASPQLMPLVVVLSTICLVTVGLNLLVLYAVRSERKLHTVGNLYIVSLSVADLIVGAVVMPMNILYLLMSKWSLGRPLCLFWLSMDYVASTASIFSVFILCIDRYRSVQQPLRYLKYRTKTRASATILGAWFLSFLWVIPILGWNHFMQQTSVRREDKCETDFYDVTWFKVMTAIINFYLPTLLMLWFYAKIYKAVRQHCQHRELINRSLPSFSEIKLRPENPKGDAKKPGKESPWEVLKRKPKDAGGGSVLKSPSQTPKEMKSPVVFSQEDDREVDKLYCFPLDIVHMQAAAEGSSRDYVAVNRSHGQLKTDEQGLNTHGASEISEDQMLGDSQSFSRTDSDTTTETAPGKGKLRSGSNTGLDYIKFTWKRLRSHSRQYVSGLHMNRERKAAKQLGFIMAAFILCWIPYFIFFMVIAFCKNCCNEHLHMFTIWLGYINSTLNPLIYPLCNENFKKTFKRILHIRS
T3 sequence (P11229 whole entry): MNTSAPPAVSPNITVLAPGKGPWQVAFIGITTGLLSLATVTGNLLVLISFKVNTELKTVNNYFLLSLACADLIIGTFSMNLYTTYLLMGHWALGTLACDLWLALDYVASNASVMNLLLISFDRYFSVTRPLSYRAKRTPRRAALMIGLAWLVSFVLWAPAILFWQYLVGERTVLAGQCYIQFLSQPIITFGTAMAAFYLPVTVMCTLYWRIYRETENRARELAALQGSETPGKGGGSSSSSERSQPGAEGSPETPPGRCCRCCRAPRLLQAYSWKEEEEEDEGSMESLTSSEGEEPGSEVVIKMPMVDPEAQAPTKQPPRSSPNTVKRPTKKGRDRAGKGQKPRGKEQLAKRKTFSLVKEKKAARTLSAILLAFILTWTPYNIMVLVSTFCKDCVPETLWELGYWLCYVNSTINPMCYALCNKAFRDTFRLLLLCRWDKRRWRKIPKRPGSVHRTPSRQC
T1 sequence (P18089 whole entry): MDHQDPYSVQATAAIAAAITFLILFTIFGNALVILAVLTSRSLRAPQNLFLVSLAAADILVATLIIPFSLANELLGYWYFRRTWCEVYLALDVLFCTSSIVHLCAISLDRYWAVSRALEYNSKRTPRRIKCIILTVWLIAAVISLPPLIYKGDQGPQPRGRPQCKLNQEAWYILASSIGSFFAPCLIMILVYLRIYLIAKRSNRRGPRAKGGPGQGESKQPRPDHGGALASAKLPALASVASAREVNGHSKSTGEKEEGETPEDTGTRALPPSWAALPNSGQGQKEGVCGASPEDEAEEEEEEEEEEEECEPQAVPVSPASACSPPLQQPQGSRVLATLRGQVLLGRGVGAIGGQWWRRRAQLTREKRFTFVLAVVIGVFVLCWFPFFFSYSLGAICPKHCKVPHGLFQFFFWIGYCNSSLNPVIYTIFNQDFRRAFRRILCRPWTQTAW
T4 sequence (P20309 whole entry): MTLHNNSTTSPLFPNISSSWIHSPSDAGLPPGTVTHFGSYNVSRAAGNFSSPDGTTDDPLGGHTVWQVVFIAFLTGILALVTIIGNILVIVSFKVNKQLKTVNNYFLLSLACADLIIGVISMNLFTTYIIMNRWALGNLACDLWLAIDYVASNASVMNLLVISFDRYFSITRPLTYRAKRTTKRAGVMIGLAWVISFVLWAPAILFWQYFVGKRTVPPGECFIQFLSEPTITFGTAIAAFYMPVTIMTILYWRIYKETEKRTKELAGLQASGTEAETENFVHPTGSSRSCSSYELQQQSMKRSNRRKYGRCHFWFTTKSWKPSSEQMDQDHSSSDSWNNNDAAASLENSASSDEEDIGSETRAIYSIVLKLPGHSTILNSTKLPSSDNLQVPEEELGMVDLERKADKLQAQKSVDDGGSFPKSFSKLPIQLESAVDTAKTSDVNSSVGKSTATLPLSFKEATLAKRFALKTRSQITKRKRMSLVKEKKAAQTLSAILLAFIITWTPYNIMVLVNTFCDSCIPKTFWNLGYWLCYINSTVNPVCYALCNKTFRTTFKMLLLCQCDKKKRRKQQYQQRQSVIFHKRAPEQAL

Compound	Ki [1] [nM]	reduction of H1 histaminergic receptor affinity compared to AT [2] [fold]	reduction of H1 histaminergic receptor affinity compared to NT [2] [fold]	antiallodynic activity [3]	Ki [4] [nM]	Ki [5] [nM]	antiallodynic activity, oral ([3]; p.o. and 60 mg/kg p.o.)	inhibition of gastrointestinal transit (% GIT) [6]
CNCC/C=C1\c2ccccc2C[C@H](O)c2ccccc21 (stereo in doubt) [(+)-E-10-OH-NT]	4200	220	40	comparable to that of the vehicle-only control	710	820	–	–
CNCC/C=C1\c2ccccc2C[C@@H](O)c2ccccc21 (stereo in doubt) [(−)-E-10-OH-NT]	4300	220	40	statistically significant over that observed for the vehicle-treated control group; also recorded: greater than that observed for the vehicle-treated control group	410	390	greater than that observed for the vehicle-treated control	markedly lower inhibition of transit as compared to both AT and NT
